Assay results reported in US6100273A, “Water soluble camptothecin derivatives” (priority 1997, dated 2000).
Where a name gives a salt, the structure may show the parent alone. Read-outs that look alike come from different tables or passages of the source.

Tests used:
[1] = cited from earlier work
[2] = biological target: T1, topoisomerase Type I (Bos taurus, UniProt F1MN93); assay: biochemical
T1 sequence (F1MN93 1-767): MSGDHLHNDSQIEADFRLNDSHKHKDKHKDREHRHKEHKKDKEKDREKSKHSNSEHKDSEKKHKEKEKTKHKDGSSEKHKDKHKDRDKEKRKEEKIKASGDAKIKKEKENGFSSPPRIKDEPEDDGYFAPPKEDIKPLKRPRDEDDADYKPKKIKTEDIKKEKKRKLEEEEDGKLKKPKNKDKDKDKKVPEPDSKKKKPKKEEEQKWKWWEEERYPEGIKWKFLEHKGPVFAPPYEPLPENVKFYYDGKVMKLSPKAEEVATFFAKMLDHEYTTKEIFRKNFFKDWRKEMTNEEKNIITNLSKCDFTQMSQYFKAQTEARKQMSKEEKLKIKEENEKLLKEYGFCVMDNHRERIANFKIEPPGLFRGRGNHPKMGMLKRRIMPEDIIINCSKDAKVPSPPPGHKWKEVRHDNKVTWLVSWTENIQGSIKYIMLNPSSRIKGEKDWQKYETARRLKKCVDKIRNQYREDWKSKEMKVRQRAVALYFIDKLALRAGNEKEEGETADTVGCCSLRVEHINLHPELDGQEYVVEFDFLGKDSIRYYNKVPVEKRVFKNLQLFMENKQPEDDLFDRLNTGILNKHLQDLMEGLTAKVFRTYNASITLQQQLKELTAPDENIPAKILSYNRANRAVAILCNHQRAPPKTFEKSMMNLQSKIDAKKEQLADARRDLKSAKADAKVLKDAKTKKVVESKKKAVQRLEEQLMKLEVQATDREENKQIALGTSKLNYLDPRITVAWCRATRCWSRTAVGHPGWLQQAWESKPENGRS
Description: Cleavable Complex in vitro Assay
The relative topoisomerase Type I inhibitory activity of the compounds of formula (I) was determined by cleavable complex in vitro assay. This assay performed according to the method described in Hsiang, Y. et al., J. Biol. Chem., 260:14873-14878 (1985), correlates well with in vivo anti-tumor activity of topoisomerase inhibitors in animal models of cancer, e.g., camptothecin and its analogs. See Hsiang et al., Cancer Research, 49:4385-4389 (1989) and Jaxel et al., Cancer Research, 49:1465-1469 (1989).

[3] = Wani et al.; cited from earlier work
[4] = Oxidation during purification; assay type: physicochemical; details: oxidizes to the sulfinyl compound of Example 27
Description: Mp. 195° C. (dec). MS MH+554.

[5] = system: tumor; details: background on camptothecin; cited from earlier work
[6] = system: topoisomerase I; details: background on camptothecin; cited from earlier work
[7] = system: leukemia (L-1210); details: laboratory animals; cited from earlier work
[8] = system: certain solid tumors; details: laboratory animals; cited from earlier work

CC[C@@](O)(C(=O)O)c1cc2n(c(=O)c1CO)Cc1cc3ccccc3nc1-2 [sodium salt]
solubility in physiologically compatible, aqueous media [1]: soluble

CC[C@@]1(O)C(=O)OCc2c1cc1n(c2=O)Cc2c-1nc1cc3c(cc1c2CSc1ccc(NC(=O)CN(C)C)cc1)OCCO3 [Example 28, 7-(4-(2-Dimethylaminoacetamido)phenylthio)methyl-10,11-(ethylenedioxy)-20(S)-camptothecin]
IC50 [2]: > 500 nM

CC[C@@]1(O)C(=O)OCc2c1cc1n(c2=O)Cc2c-1nc1cc3c(cc1c2CSc1ccc(N)cc1)OCCO3 [Example 18, 7-(4-Aminophenylthio)methyl-10,11-(ethylenedioxy)-20(S)-camptothecin]
IC50 [2]: > 500 nM

CC[C@@]1(O)C(=O)OCc2c1cc1n(c2=O)Cc2c-1nc1cc3c(cc1c2CSc1ccc(NC(C)=O)cc1)OCCO3 [Example 17, 7-(4-Acetamidophenylthio)methyl-10,11-(ethylenedioxy)-20(S)-camptothecin]
IC50 ([2]; read-out: topoisomerase Type I inhibitory activity (IC50), concentration at which 50% of the DNA substrate has been captured by topoisomerase 1): > 500 nM

CC[C@@]1(O)C(=O)OCc2c1cc1n(c2=O)Cc2c-1nc1cc3c(cc1c2C[n+]1cccc(CO)c1)OCCO3 [Example 36, 7-(3'-Hydroxymethylpyridinium)methylene-10,11-ethylenedioxy-20(S)-camptothecin chloride]
IC50 ([2]; concentration at which 50% of the DNA substrate has been captured by topoisomerase 1, read-out: topoisomerase Type I inhibitory activity (IC50)): > 500 nM

CCC1(O)C(=O)OCc2c1cc1n(c2=O)Cc2cc3cc4c(cc3nc2-1)OCO4 (stereo not drawn) [10,11-methylenedioxycamptothecin]
water solubility ([1]; compared with camptothecin): as poor as camptothecin
potency relative to unsubstituted camptothecin [3]: more potent

CC[C@@]1(O)C(=O)OCc2c1cc1n(c2=O)Cc2c-1nc1cc3c(cc1c2C[S+]([O-])CCCN(C)C)OCCO3 (stereo partly drawn) [Example 27, 7-(3-Dimethylaminopropylsulfinyl)methyl-10,11-(ethylenedioxy)-20(S)-camptothecin]
oxidation during purification [4]: readily oxidize

CCCCOP(=O)(Cc1c2c(nc3cc4c(cc13)OCCO4)-c1cc3c(c(=O)n1C2)COC(=O)[C@]3(O)CC)OCCCC [Example 15, 7-Di-n-butylphosphonomethylene-10,11-(ethylenedioxy)-20(S)-camptothecin]
IC50 [2]: > 2000 nM

CCC1(O)C(=O)OCc2c1cc1n(c2=O)Cc2c-1nc1cc3c(cc1c2C[n+]1ccccc1)OCCO3 (racemic) [Example 31, 7-Pyridinium methylene-10,11 ethylenedioxy-20(R,S)-camptothecin chloride]
IC50 [2]: > 1000 nM

CC[C@@]1(O)C(=O)OCc2c1cc1n(c2=O)Cc2cc3ccccc3nc2-1 [Camptothecin]
antitumor activity [5]: potent antitumor agent
topoisomerase I inhibition [6]: topoisomerase I inhibitor
effectiveness in the treatment of leukemia (L-1210) [7]: effective
effectiveness in the treatment of certain solid tumors [8]: effective
solubility in physiologically compatible, aqueous media [1]: essentially insoluble
